Earlier results in patent US5472628A, “Liquid detergents with an aryl acid for inhibition of proteolytic enzyme” (The Procter & Gamble Company, priority 1994, dated 1995).
pKi: −log10 of the molar value.

Biological target: subtilisin
Details: quoted in the description, read-out: Ki (inhibition constants of boronic acids for subtilisin)

## OB(O)c1ccc(Br)cc1 [4-bromobenzene boronic acid]
  pKi: 5.00
